Data published in patent US9856279B2 (AGIOS PHARMACEUTICALS, INC, priority 2011, dated 2018).

Assays:
[1] = molecular target: IDH1 R132H (Homo sapiens, UniProt O75874, R132H); assay: Assay for IDH1 R132H inhibitors (NADPH/aKG, resazurin detection); assay type: biochemical; conditions: enzyme assay of Example 12; read-out: IDH1R132H IC50
Summary of the method: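 Compound added to substrate mix (8 uM NADPH, 2 mM aKG), then enzyme mix (0.2 μg/ml IDH1 R132H); 50 min RT in 20 mM Tris pH 7.5, 150 mM NaCl, 10 mM MgCl2, 0.03% BSA. Resazurin detection mix (30 μM) 5 min RT; resorufin fluorescence Ex544/Em590.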

[2] = test system: HT1080 cells; assay: Cellular assay for IDH1m inhibitors: inhibition of 2-HG production (LC-MS, 48 hours) in HT1080 cells; assay type: cell-based; conditions: Homo sapiens, HT-1080; inhibition of 2-HG production, HT1080 cells; read-out: HT1080 IC50
Summary of the method: (§1)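 5000 cells/well, DMEM + 10% FBS, overnight 37 °C/5% CO2; compound added (0.2% DMSO final), 48 h; medium sampled for LC-MS 2-HG; IC50 vs DMSO control.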

[3] = test system: U87MG cells; assay: Cellular assay for IDH1m inhibitors: inhibition of 2-HG production (LC-MS, 48 hours) in U87MG cells; assay type: cell-based; conditions: Homo sapiens, U-87 MG, inhibition of 2-HG production, U87R132H cells; read-out: U87R132H IC50
Summary of the method: as §1

Chain of IDH1 R132H (O75874 whole entry R132H): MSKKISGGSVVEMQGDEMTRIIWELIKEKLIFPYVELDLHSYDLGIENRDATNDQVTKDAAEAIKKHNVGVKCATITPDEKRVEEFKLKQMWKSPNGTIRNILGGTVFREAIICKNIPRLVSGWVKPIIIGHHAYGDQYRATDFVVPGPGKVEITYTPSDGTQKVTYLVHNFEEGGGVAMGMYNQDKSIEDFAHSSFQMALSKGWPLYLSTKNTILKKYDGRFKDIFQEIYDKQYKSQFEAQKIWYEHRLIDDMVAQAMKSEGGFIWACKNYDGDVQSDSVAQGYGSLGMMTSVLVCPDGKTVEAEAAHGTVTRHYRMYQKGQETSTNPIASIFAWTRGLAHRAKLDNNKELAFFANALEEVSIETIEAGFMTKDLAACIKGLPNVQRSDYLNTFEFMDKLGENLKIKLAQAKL

| Compound | IC50 [1] [nM] | IC50 [2] [nM] | IC50 [3] [nM] |
| --- | --- | --- | --- |
| COCCC(=O)N1CCN(c2nc(C3CC3)c(-c3ccc(F)c(C#N)c3)c(C)c2C#N)C[C@H]1C [Compound 321, (R)-5-(3-cyano-4-fluoro-phenyl)-6-cyclopropyl-2-[4-(3-methoxy-propionyl)-3-methyl-piperazin-1-yl]-4-methyl-nicotinonitrile] | < 500 | 500 to 1000 | < 500 |
| C=Cc1cc(-c2cc(C#N)c(N3CCN(C(=O)c4ccoc4)[C@H](C4CC4)C3)nc2C2CC2)ccn1 [Compound 546, (R)-2-cyclopropyl-6-(3-cyclopropyl-4-(furan-3-carbonyl)piperazin-1-yl)-2′-vinyl-3,4′-bipyridine-5-carbonitrile] | < 500 | < 500 | < 500 |
| C=Cc1cc(-c2cc(C#N)c(N3CCN(C(=O)CC(F)(F)F)[C@H](C)C3)nc2C2CC2)ccn1 [Compound 444, (R)-2-cyclopropyl-6-(3-methyl-4-(3,3,3-trifluoropropanoyl)piperazin-1-yl)-2′-vinyl-3,4′-bipyridine-5-carbonitrile] | < 500 | < 500 | < 500 |
| C=Cc1ccc2c(-c3cc(C#N)c(N4CCN(C(=O)CC(F)(F)F)[C@H](C5CC5)C4)nc3C3CC3)cccc2n1 [Compound 551, (R)-6-cyclopropyl-2-(3-cyclopropyl-4-(3,3,3-trifluoropropanoyl)piperazin-1-yl)-5-(2-vinylquinolin-5-yl)nicotinonitrile] | < 500 | < 500 | < 500 |
| C=Cc1cnnc(-c2c(C3CC3)nc(N3CCN(C(=O)/C=C/CCO)[C@H](C4CC4)C3)c(C#N)c2C)c1 [Compound 769, (R,E)-6-cyclopropyl-2-(3-cyclopropyl-4-(5-hydroxypent-2-enoyl)piperazin-1-yl)-4-methyl-5-(5-vinylpyridazin-3-yl)nicotinonitrile] | < 500 | < 500 | < 500 |
| C=CS(=O)(=O)Nc1cccc(-c2c(C3CC3)nc(N3CCN(C(=O)C4CC4)[C@H](C4CC4)C3)c(C#N)c2C)c1 [Compound 470, (R)—N-(3-(5-cyano-6-(4-(cyclopropanecarbonyl)-3-cyclopropylpiperazin-1-yl)-2-cyclopropyl-4-methylpyridin-3-yl)phenyl)ethenesulfonamide] | < 500 | 1000 to 10000 | 1000 to 10000 |
| N#Cc1cc(Nc2ccnc(Cl)c2)c(C2CC2)nc1N1CCN(C(=O)C[C@H]2CCO2)[C@H](C2CC2)C1 [Compound 748, 5-(2-chloropyridin-4-ylamino)-6-cyclopropyl-2-((R)-3-cyclopropyl-4-(2-((R)-oxetan-2-yl)acetyl)piperazin-1-yl)nicotinonitrile] | < 500 | < 500 | < 500 |
| CCOC1CC1C(=O)N1CCN(c2nc(C3CC3)c(-c3cccc4cnccc34)cc2C#N)C[C@H]1C1CC1 (stereo partly drawn) [Compound 481] | < 500 | < 500 | < 500 |
| CCC(=O)Nc1cccc(-c2cc(C#N)c(N3CCN(C(=O)CCOC)[C@H](C)C3)nc2C2CC2)c1 [Compound 424, (R)—N-(3-(5-cyano-2-cyclopropyl-6-(4-(3-methoxypropanoyl)-3-methylpiperazin-1-yl)pyridin-3-yl)phenyl)propionamide] | < 500 | 500 to 1000 | 500 to 1000 |
| COCCC(=O)N1CCN(c2nc(C3CC3)c(-c3ccccc3OC(F)(F)F)cc2C#N)C[C@H]1C(C)C [Compound 276, (R)-6-cyclopropyl-2-(3-isopropyl-4-(3-methoxypropanoyl)piperazin-1-yl)-5-(2-(trifluoromethoxy)phenyl)nicotinonitrile] | < 500 | 1000 to 10000 | 1000 to 10000 |
| COCCC(=O)N1CCN(c2nc(C3CC3)c(-c3ccc4oc(=O)[nH]c4c3)cc2C#N)C[C@H]1C [Compound 473, (R)-6-cyclopropyl-2-[4-(3-methoxy-propionyl)-3-methyl-piperazin-1-yl]-5-(2-oxo-2,3-dihydro-benzooxazol-5-yl)-nicotinonitrile] | < 500 | 1000 to 10000 | 500 to 1000 |
| C=Cc1cnc2c(-c3cc(C#N)c(N4CCN(C(=O)CCO)[C@H](C5CC5)C4)nc3C3CC3)cccc2n1 [Compound 657, (R)-6-cyclopropyl-2-(3-cyclopropyl-4-(3-hydroxypropanoyl)piperazin-1-yl)-5-(2-vinylquinoxalin-5-yl)nicotinonitrile] | < 500 | < 500 | < 500 |
| C=Cc1cc(Oc2c(C3CC3)nc(N3CCN(C(=O)CCO)[C@H](C4CC4)C3)c(C#N)c2C)ccn1 [Compound 777, (R)-6-cyclopropyl-2-(3-cyclopropyl-4-(3-hydroxypropanoyl)piperazin-1-yl)-4-methyl-5-((2-vinylpyridin-4-yl)oxy)nicotinonitrile] | < 500 | < 500 | < 500 |
| C=Cc1ccc2ccc(Nc3cc(C#N)c(N4CCN(C(=O)CCOC)[C@H](C)C4)nc3C3CC3)cc2n1 [Compound 732, (R)-6-cyclopropyl-2-(4-(3-methoxypropanoyl)-3-methylpiperazin-1-yl)-5-(2-vinylquinolin-7-ylamino) nicotinonitrile] | < 500 | < 500 | < 500 |
| C=Cc1cc(-c2cc(C#N)c(N3CCN(C(=O)CC(C)O)[C@H](C4CC4)C3)nc2C2CC2)ccn1 (stereo partly drawn) [Compound 568, 2-cyclopropyl-6-((3R)-3-cyclopropyl-4-(3-hydroxybutanoyl)piperazin-1-yl)-2′-vinyl-3,4′-bipyridine-5-carbonitrile] | < 500 | < 500 | < 500 |
| COCCC(=O)N1CCN(c2nc(C3CC3)c(-c3cccc4cnccc34)cc2C#N)C[C@H]1C [Compound 286, (R)-6-cyclopropyl-5-(isoquinolin-5-yl)-2-(4-(3-methoxypropanoyl)-3-methylpiperazin-1-yl)nicotinonitrile] | < 500 | < 500 | < 500 |
| C=CC(=O)Nc1cccc(COc2cc(C#N)c(N3CCN(C(=O)CCOC)[C@H](C)C3)nc2C2CC2)c1 [Compound 381, (R)—N-(3-((5-cyano-2-cyclopropyl-6-(4-(3-methoxypropanoyl)-3-methylpiperazin-1-yl)pyridin-3-yloxy)methyl)phenyl)acrylamide] | < 500 | < 500 | < 500 |
| C=Cc1cc(Oc2cc(C#N)c(N3CCN(C(=O)CCOC)[C@H](C)C3)nc2C2CC2)ccn1 [Compound 667] | < 500 | < 500 | < 500 |
| Cc1cc2c(-c3cc(C#N)c(N4CCN(C(=O)C5CC5)[C@H](C5CC5)C4)nc3C3CC3)cccc2cn1 [Compound 458, (R)-2-(4-(cyclopropanecarbonyl)-3-cyclopropylpiperazin-1-yl)-6-cyclopropyl-5-(3-methylisoquinolin-5-yl)nicotinonitrile] | < 500 | 500 to 1000 | 500 to 1000 |
| C=Cc1cc(-c2c(C3CC3)nc(N3CCN(C(=O)CCO)[C@H](C)C3)c(C#N)c2C)ccn1 [Compound 654, (R)-2-cyclopropyl-6-(4-(3-hydroxypropanoyl)-3-methylpiperazin-1-yl)-4-methyl-2′-vinyl-[3,4′-bipyridine]-5-carbonitrile] | < 500 | < 500 | < 500 |
| C=Cc1nc(-c2cc(C#N)c(N3CCN(C(=O)CCO)[C@H](C4CC4)C3)nc2C2CC2)c2ccccc2n1 [Compound 670, (R)-6-cyclopropyl-2-(3-cyclopropyl-4-(3-hydroxypropanoyl)piperazin-1-yl)-5-(2-vinylquinazolin-4-yl)nicotinonitrile] | < 500 | < 500 | < 500 |
| COCCC(=O)N1CCN(c2nc(C3CC3)c(-c3cccc(C#N)c3)cc2C#N)C[C@H]1C [Compound 283, (R)-5-(3-cyanophenyl)-6-cyclopropyl-2-(4-(3-methoxypropanoyl)-3-methylpiperazin-1-yl)nicotinonitrile] | < 500 | 500 to 1000 | 1000 to 10000 |
| C=Cc1cccc(-c2cc(C#N)c(N3CCN(C(=O)C4CC4)[C@H](C4CC4)C3)nc2C2CC2)n1 [Compound 499, (R)-6′-(4-(cyclopropanecarbonyl)-3-cyclopropylpiperazin-1-yl)-2′-cyclopropyl-6-vinyl-2,3′-bipyridine-5′-carbonitrile] | 500 to 1000 | 1000 to 10000 | 1000 to 10000 |
| C=Cc1cc(-c2cc(C#N)c(N3CCN(C(=O)COC)[C@H](C4CC4)C3)nc2C2CC2)c2ccncc2n1 [Compound 717, (R)-6-cyclopropyl-2-(3-cyclopropyl-4-(2-methoxyacetyl)piperazin-1-yl)-5-(2-vinyl-1,7-naphthyridin-4-yl)nicotinonitrile] | < 500 | < 500 | < 500 |
| C=Cc1cc(-c2cc(C#N)c(N3CCN(C(=O)CCOC)[C@H](C(C)C)C3)nc2C2CC2)ncn1 [Compound 639, (R)-6-cyclopropyl-2-(3-isopropyl-4-(3-methoxypropanoyl)piperazin-1-yl)-5-(6-vinylpyrimidin-4-yl)nicotinonitrile] | < 500 | < 500 | < 500 |
| COCCC(=O)N1CCN(c2nc(C3CC3)c(-c3ccc(F)c(Cl)c3)c(C)c2C#N)C[C@H]1C [Compound 271, (R)-5-(3-chloro-4-fluorophenyl)-6-cyclopropyl-2-(4-(3-methoxypropanoyl)-3-methylpiperazin-1-yl)-4-methylnicotinonitrile] | < 500 | 1000 to 10000 | 1000 to 10000 |
